According to US20200390783A1, “INHIBITORS OF EGFR AND METHODS OF USE THEREOF” (DANA-FARBER CANCER INSTITUTE, INC., priority 2018, published 2020):
Like-named read-outs stand apart in the source and are kept apart here.

Target: EGFR T790M/L858R Ba/F3 cell line (Homo sapiens, UniProt P00533, T790M/L858R, cells depend on it)
Assay: Ba/F3 cell proliferation model (MTS assay)
Assay type: cell-based, murine
Experimental: The EGFR mutant L858R, Del E746_A750, L858R/T790M, DeE746_A750/T790M, L858R/T790M/C797S and Del/T790M/C797S Ba/F3 cells were previously described (Zhou et al., Nature 462, (2009), 1070-1074). All cell lines were maintained in RPMI 1640 (Cellgro; Mediatech Inc., Herndon, Calif.) supplemented with 10% FBS 100 units/mL penicillin, 100 units/mL streptomycin, and 2 mM glutamine. L858R cells were maintained in ACL-4 media (Invitrogen, Carlsbad, Calif.) supplemented with 5% FBS, 100 units/mL penicillin, 100 units/mL streptomycin, and 2 mM glutamine. The EGFR I941R mutation was introduced via site directed mutagenesis using the Quick Change Site-Directed Mutagenesis kit (Stratagene; La Jolla, Calif.) according to the manufacturer's instructions. All constructs were confirmed by DNA sequencing. The constructs were shuttled into the retroviral vector JP1540 using the BD Creator™ System (BD Biosciences). Ba/F3 cells were infected with retrovirus and according to standard protocols, as described previously (Zhou 2009). Stable clones were obtained by selection in puromycin (2 μg/ml).
Growth and inhibition of growth was assessed by MTS assay and was performed according to previously established methods (Zhou 2009). The MTS assay is a colorimetric method for determining the number of viable cells that is based on the bioreduction of MTS by cells to a formazan product that is soluble in cell culture medium and can be detected spectrophotometrically. […] All experimental points were set up in six wells and all experiments were repeated at least three times. […] The curves were fitted using a non-linear regression model with a sigmoidal dose response.

[1] = absence of cetuximab, read-out: Ba/F3 cellular activity (EC50) T790M/L858R
[2] = read-out: Ba/F3 cellular activity (EC50) T790M/L858R + Cetuximab, presence of 1 μg/mL cetuximab

Chain of EGFR T790M/L858R Ba/F3 cell line (P00533 whole entry T790M/L858R): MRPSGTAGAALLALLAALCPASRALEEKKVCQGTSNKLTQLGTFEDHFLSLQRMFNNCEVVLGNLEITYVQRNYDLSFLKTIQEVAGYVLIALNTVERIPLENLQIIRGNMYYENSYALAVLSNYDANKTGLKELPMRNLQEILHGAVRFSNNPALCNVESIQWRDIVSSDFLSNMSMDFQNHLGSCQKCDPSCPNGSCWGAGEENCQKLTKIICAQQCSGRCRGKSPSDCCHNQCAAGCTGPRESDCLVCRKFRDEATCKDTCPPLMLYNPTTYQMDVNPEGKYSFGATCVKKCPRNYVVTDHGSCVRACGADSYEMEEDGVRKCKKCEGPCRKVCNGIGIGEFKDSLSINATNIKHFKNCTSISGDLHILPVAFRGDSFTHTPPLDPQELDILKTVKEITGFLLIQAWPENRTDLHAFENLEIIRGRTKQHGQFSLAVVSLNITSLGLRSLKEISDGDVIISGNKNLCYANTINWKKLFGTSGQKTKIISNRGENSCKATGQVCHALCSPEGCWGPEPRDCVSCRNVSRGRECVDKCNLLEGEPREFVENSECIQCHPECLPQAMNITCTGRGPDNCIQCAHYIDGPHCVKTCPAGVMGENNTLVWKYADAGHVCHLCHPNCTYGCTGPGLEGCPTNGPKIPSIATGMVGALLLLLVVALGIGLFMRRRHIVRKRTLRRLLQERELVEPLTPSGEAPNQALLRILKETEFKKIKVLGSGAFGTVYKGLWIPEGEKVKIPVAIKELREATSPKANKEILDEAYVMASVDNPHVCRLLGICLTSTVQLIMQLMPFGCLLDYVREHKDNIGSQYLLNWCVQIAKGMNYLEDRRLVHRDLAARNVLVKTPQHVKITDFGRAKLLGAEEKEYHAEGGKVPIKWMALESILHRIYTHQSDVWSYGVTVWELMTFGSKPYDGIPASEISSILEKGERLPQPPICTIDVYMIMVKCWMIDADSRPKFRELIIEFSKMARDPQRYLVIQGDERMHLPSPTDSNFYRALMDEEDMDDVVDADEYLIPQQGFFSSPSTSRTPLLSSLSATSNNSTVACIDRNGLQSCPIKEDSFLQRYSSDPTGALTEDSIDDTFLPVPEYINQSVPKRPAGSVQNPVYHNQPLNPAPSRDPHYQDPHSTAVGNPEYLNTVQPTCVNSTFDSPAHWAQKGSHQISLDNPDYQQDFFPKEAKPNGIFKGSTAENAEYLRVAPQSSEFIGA

Row | EC50 [1] [nM] | EC50 [2] [nM] | SMILES
1 | ≥ 750 | 500 to 750 | C=CC(=O)Nc1ccc2c(c1)N(Cc1ccccc1)C(=O)c1cc(-c3ccc4[nH]ccc4c3)ccc1N2 [Compound I-1]
2 | < 250 | < 250 | O=C(CCl)Nc1ccc2c(c1)N(Cc1ccccc1)C(=O)c1cc(-c3ccc4[nH]ccc4c3)ccc1N2 [Compound I-2]
3 | ≥ 750 | ≥ 750 | C=CC(=O)Nc1ccc2c(c1)N(Cc1ccccc1)C(=O)c1cc(-c3ccc(N4CCNCC4)cc3)ccc1N2 [Compound I-3, N-(10-Benzyl-11-oxo-2-(4-(piperazin-1-yl)phenyl)-10,11-dihydro-5H-dibenzo[b,e][1,4]diazepin-8-yl)acrylamide]
4 | ≥ 750 | 250 to 500 | O=C1c2cc(Br)ccc2Nc2ccc(F)cc2N1Cc1ccccc1 [I-a, 10-Benzyl-2-bromo-8-fluoro-5,10-dihydro-11H-dibenzo[b,e][1,4]diazepin-11-one]
